The values below come from patent EP4752152A1, “STEROID COMPOUND, AND PREPARATION METHOD THEREFOR AND USE THEREOF” (Cholesgen (Shanghai) Co.Ltd., priority 2023, dated 2025).

In the first assay the test system is SREBP pathway. The assay is described as follows: SREBP luciferase reporter gene system (SRE-luciferase assay). The assay is classed as cell-based, human. Particulars: Homo sapiens, Huh-7, 16 h, Huh-7/SRE-luc cells, sterol-deficient medium, 0.01-10 µM. An outline of the steps: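 Huh-7 cells stably carrying LDLR promoter-luciferase plus GFP were treated 16 h in sterol-deficient medium (5% lipoprotein-deficient serum, 2 µM lovastatin, 10 µM mevalonic acid) at 0.01–10 µM. Luciferase/GFP ratio measured as pathway activity; inhibition versus DMSO fitted to a four-parameter model for IC50.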
As for `C[C@H](CCCC(O)c1cccc(OC(F)(F)F)c1)[C@H]1CC[C@H]2[C@H]3[C@H](CC[C@]12C)[C@@]1(C)CC[C@H](O)[C@H](O)[C@@H]1CC3(F)F` (single isomer, unassigned) [Compound 190, (1R,3aS,3bS,5aR,6R,7S,9aR,9bS,11aR)-4,4-difluoro-1-[(2R,6S)-6-hydroxy-6-{^3-[(trifluoromethyl)oxy]phenyl}hexan-2-yl]-9a,11a-dimethylhexadecahydro-1H-cyclopenta[1,2-a]phenanthrene-6,7-diol or (1R,3aS,3bS,5aR,6R,7S,9aR,9bS,11aR)-4,4-difluoro-1-[(2R,6R)-6-hydroxy-6-{3-[(trifluoromethyl)oxy]phenyl}hexan-2-yl]-9a,11a-dimethylhexadecahydro-1H-cyclopenta[1,2-a]phenanthrene-6,7-diol], the IC50 worked out at 0.355 µM.
The same measure, in the same setting: in the case of `C[C@H](CCCC(O)c1nc2c(s1)CCOC2)[C@H]1CC[C@H]2[C@H]3[C@H](CC[C@]12C)[C@@]1(C)CC[C@H](O)[C@H](O)[C@@H]1CC3(F)F` (stereo partly drawn) [Compound 257, (1R,3aS,3bS,5aR,6R,7 S,9aR,9bS,11aR)-1-[(2R)-6-(6,7-Dihydro-4H-pyrano[3,4-d][1,3]thiazol-2-yl)-6-hydroxyhexan-2-yl]-4,4-difluoro-9a,11a-dimethylhexadecahyd ro-1H-cyclopenta[1,2-a]phenanthrene-6,7-diol] it was 0.154 µM.
As for `COc1cc(F)cc(F)c1[C@@H](O)CCC[C@@H](C)[C@H]1CC[C@H]2C3=C(F)C[C@H]4[C@@H](O)[C@@H](O)CC[C@]4(C)[C@H]3CC[C@]12C` (single isomer, unassigned) [Compound 202], the IC50 was 0.411 µM.
Still for that read-out and setting: in the case of `COc1nc(F)ccc1C(O)CC[C@@H](C)[C@H]1CC[C@H]2[C@H]3[C@H](CC[C@]12C)[C@@]1(C)CC[C@H](O)[C@H](O)[C@@H]1CC3(F)F` (stereo partly drawn) [Compound 341, (1R,3aS,3bS,5aR,6R,7S,9aR,9bS,11aR)-4,4-difluoro-1-[(2R)-5-(6-fluoro-2-methoxypyridin-3-yl)-5-hydroxypentan-2-yl]-9a,11a-dimethylhexadecahydro-1H-cyclopenta[1,2-a]phenanthrene-6,7-diol] it was 0.206 µM.
As for `C[C@H](CCC[C@H](O)c1cc2ccccc2o1)[C@H]1CC[C@H]2[C@H]3[C@H](CC[C@]12C)[C@@]1(C)CC[C@H](O)[C@H](O)[C@@H]1CC3(F)F` [Compound 316, (1R,3aS,3bS,5aR,6R,7S,9aR,9bS,11aR)-1-[(2R,6S)-6-(1-benzofuran-2-yl)-6-hydroxyhexan-2-yl]-4,4-difluoro-9a,11a-dimethylhexadecahydro-1H-cyclopenta[1,2-a]phenanthrene-6,7-diol], the IC50 came out at 0.145 µM.
In the case of `C[C@H](CCC(O)c1ccc(F)nc1OC1CC1)[C@H]1CC[C@H]2[C@H]3[C@H](CC[C@]12C)[C@@]1(C)CC[C@H](O)[C@H](O)[C@@H]1CC3(F)F` (stereo partly drawn) [Compound 382, (1R,3aS,3bS,5aR,6R,7S,9aR,9bS,11aR)-1-[(2R)-5-[2-(cyclopropyloxy)-6-fluoropyridin-3-yl]-5-hydroxypentan-2-yl]-4,4-difluoro-9a,11a-dimethylhexadecahydro-1H-cyclopenta[1,2-a]phenanthrene-6,7-diol], the 50% inhibitory concentration (IC50) was 0.057 µM.
As to `C[C@H](CCC[C@H](O)c1cccc2cnn(C)c12)[C@H]1CC[C@H]2C3=C(F)C[C@H]4[C@@H](O)[C@@H](O)CC[C@]4(C)[C@H]3CC[C@]12C` (single isomer, unassigned) [Compound 245], the IC50 came to 0.159 µM.
As for `C[C@H](CCCC(O)c1cccc2nnn(C)c12)[C@H]1CC[C@H]2[C@H]3[C@H](CC[C@]12C)[C@@]1(C)CC[C@H](O)[C@H](O)[C@@H]1CC3(F)F` (single isomer, unassigned) [Compound 277, (1R,3aS,3bS,5aR,6R,7S,9aR,9bS,11aR)-4,4-difluoro-1-[(2R,6S)-6-hydroxy-6-(3-methylbenzo[d][1,2,3]triazol-4-yl)hexan-2-yl]-9a,11a-dimethylhexadecahydro-1H-cyclopenta[1,2-a]phenanthrene-6,7-diol or (1R,3aS,3bS,5aR,6R,7S,9aR,9bS,11aR)-4,4-difluoro-1-[(2R,6R)-6-hydroxy-6-(3-methylbenzo[d][1,2,3]triazol-4-yl)hexan-2-yl]-9a,11a-dimethylhexadecahydro-1H-cyclopenta[1,2-a]phenanthrene-6,7-diol], the IC50 amounted to 0.369 µM.
Still for that read-out and setting: in the case of `C[C@H](CCCC(O)c1cccc2cnn(C)c12)[C@H]1CC[C@H]2[C@H]3[C@H](CC[C@]12C)[C@@]1(C)CC[C@H](O)[C@H](O)[C@@H]1CC3(F)F` (stereo partly drawn) [Compound 207, (1R,3aS,3bS,5aR,6R,7 S,9aR,9bS,11aR)-4,4-Difluoro-1-[(2R)-6-hydroxy-6-(1-methylindazol-7-yl)hexan-2-yl]-9a,11a-dimethylhexadecahydro-1H-cyclopenta[1,2-a]phenanthrene-6,7-diol] it was 0.206 µM.
Consider `COc1nccnc1[C@H](O)CCC[C@@H](C)[C@H]1CC[C@H]2[C@H]3[C@H](CC[C@]12C)[C@@]1(C)CC[C@H](O)[C@H](O)[C@@H]1CC3(F)F` [Compound 154, (1R,3aS,3bS,5aR,6R,7S,9aR,9bS,11aR)-4,4-difluoro-1-[(2R,6R)-6-hydroxy-6-(3-methoxypyrazin-2-yl)hexan-2-yl]-9a,11a-dimethylhexadecahydro-1H-cyclopenta[1,2-a]phenanthrene-6,7-diol], for which the IC50 is 0.242 µM.
Regarding `COc1cc(F)cc(F)c1[C@H](O)CCC[C@@H](C)[C@H]1CC[C@H]2C3=C(F)C[C@H]4[C@@H](O)[C@@H](O)CC[C@]4(C)[C@H]3CC[C@]12C` (single isomer, unassigned) [Compound 203], the IC50 came out at 0.174 µM.
The same measure, in the same setting: to `C[C@H](CCCC(O)c1ccc(F)nc1F)[C@H]1CC[C@H]2[C@H]3[C@H](CC[C@]12C)[C@@]1(C)CC[C@H](O)[C@H](O)[C@@H]1CC3(F)F` (stereo partly drawn) [Compound 148, (1R,3aS,3bS,5aR,6R,7S,9aR,9bS,11aR)-1-[(2R)-6-(2,6-difluoropyridin-3-yl)-6-hydroxyhexan-2-yl]-4,4-difluoro-9a,11a-dimethylhexadecahydro-1H-cyclopenta[1,2-a]phenanthrene-6,7-diol] belongs 0.08 µM; to `C[C@H](CCCC(O)c1ccc2c(c1)OC(F)(F)O2)[C@H]1CC[C@H]2[C@H]3[C@H](CC[C@]12C)[C@@]1(C)CC[C@H](O)[C@H](O)[C@@H]1CC3(F)F` (single isomer, unassigned) [Compound 258, (1R,3aS,3bS,5aR,6R,7S,9aR,9bS,11aR)-1-[(2R,6S)-6-(2,2-difluorobenzo[d][1,3]dioxol-5-yl)-6-hydroxyhexan-2-yl]-4,4-difluoro-9a,11a-dimethylhexadecahydro-1H-cyclopenta[1,2-a]phenanthrene-6,7-diol or (1R,3aS,3bS,5aR,6R,7S,9aR,9bS,11aR)-1-[(2R,6R)-6-(2,2-difluorobenzo[d][1,3]dioxol-5-yl)-6-hydroxyhexan-2-yl]-4,4-difluoro-9a,11a-dimethylhexadecahydro-1H-cyclopenta[1,2-a]phenanthrene-6,7-diol], 0.454 µM.

Still in this assay, the particulars now being: Huh-7/SRE-luc cells, sterol-deficient medium, 16 hours, 0.01-10 µM.
With `C[C@H](CCCC(O)c1cccc2[nH]ncc12)[C@H]1CC[C@H]2[C@H]3[C@H](CC[C@]12C)[C@@]1(C)CC[C@H](O)[C@H](O)[C@@H]1CC3(F)F` (single isomer, unassigned) [Compound 273, (1R,3aS,3bS,5aR,6R,7S,9aR,9bS,11aR)-4,4-difluoro-1-[(2R,6S)-6-hydroxy-6-(1H-indazol-4-yl)hexan-2-yl]-9a,11a-dimethylhexadecahydro-1H-cyclopenta[1,2-a]phenanthrene-6,7-diol or (1R,3aS,3bS,5aR,6R,7S,9aR,9bS,11aR)-4,4-difluoro-1-[(2R,6R)-6-hydroxy-6-(1H-indazol-4-yl)hexan-2-yl]-9a,11a-dimethylhexadecahydro-1H-cyclopenta[1,2-a]phenanthrene-6,7-diol], the IC50 amounted to 0.361 µM.
On to `COc1ccc(C(O)CCC[C@@H](C)[C@H]2CC[C@H]3[C@H]4[C@H](CC[C@]23C)[C@@]2(C)CC[C@H](O)[C@H](O)[C@@H]2CC4(F)F)c(F)n1` (single isomer, unassigned) [Compound 242, (1R,3aS,3bS,5aR,6R,7S,9aR,9bS,11aR)-4,4-difluoro-1-[(2R,6S)-6-(2-fluoro-6-methoxypyridin-3-yl)-6-hydroxyhexan-2-yl]-9a,11a-dimethylhexadecahydro-1H-cyclopenta[1,2-a]phenanthrene-6,7-diol or (1R,3aS,3bS,5aR,6R,7S,9aR,9bS,11aR)-4,4-difluoro-1-[(2R,6R)-6-(2-fluoro-6-methoxypyridin-3-yl)-6-hydroxyhexan-2-yl]-9a,11a-dimethylhexadecahydro-1H-cyclopenta[1,2-a]phenanthrene-6,7-diol], for which the IC50 was 0.205 µM.
Same read-out and setting: to `C[C@H](CCN(C)C(=O)c1ccccc1F)[C@H]1CC[C@H]2[C@@H]3CC[C@@]4(C)[C@@H](O)[C@@H](O)CC[C@]4(C)[C@H]3CC[C@]12C` [Compound 15B, 2-fluoro-N-[(3R)-3-[(1R,3aS,3bS,5aR,6R,7S,9aR,9bS,11aR)-6,7-dihydroxy-5a,9a,11a-trimethylhexadecahydro-1H-cyclopenta[1,2-a]phenanthren-1-yl]butyl]-N-methylbenzamide] belongs 0.32 µM; to `C[C@H](CCCC(O)c1cccc2nn[nH]c12)[C@H]1CC[C@H]2[C@H]3[C@H](CC[C@]12C)[C@@]1(C)CC[C@H](O)[C@H](O)[C@@H]1CC3(F)F` (single isomer, unassigned) [Compound 295, (1R,3aS,3bS,5aR,6R,7S,9aR,9bS,11aR)-4,4-difluoro-1-[(2R,6R)-6-hydroxy-6-(3H-benzo[d][1,2,3]triazol-4-yl)hexan-2-yl]-9a,11a-dimethylhexadecahydro-1H-cyclopenta[1,2-a]phenanthrene-6,7-diol or (1R,3aS,3bS,5aR,6R,7S,9aR,9bS,11aR)-4,4-difluoro-1-[(2R,6S)-6-hydroxy-6-(3H-benzo[d][1,2,3]triazol-4-yl)hexan-2-yl]-9a,11a-dimethylhexadecahydro-1H-cyclopenta[1,2-a]phenanthrene-6,7-diol], 0.275 µM.
